According to patent publication US9358276B2, “Methods of diagnosing and treating small intestinal bacterial overgrowth (SIBO) and SIBO-related conditions” (Cedars-Sinai Medical Center, priority 1999, dated 2016):
Several values for one entry are separate records, joined by “and”; a condition that tells them apart may be missing. Identical values can stand only once.

Assays:
intestinal transit [1] = experiment: Intestinal transit in fistulated dogs, Sqrt AUC of cumulative marker recovery; format: in vivo, dog
Protocol: In 4 dogs equipped with duodenal (10 cm from pylorus) and mid-gut (160 cm from pylorus) fistulas, as described hereinbelow (Example 14), intestinal transit was compared across an isolated 150 cm test segment (between fistulas) while 0, 15, 30 or 60 mM oleate was delivered into either the proximal or distal segment of the gut as a solution of mixed micelles in pH 7.0 phosphate buffer at 2 mL/min for 90 minutes. The segment of gut not receiving oleate was perfused with phosphate buffer, pH 7.0, at 2 mL/min. 60 minutes after the start of the perfusion, […] of ^99mTc-DTPA (diethylenetriaminepentaacetic acid) was delivered as a bolus into the test segment. Intestinal transit was then measured by counting the radioactivity of 1 ml samples collected every 5 minutes from the diverted output of the mid-gut fistula.
Intestinal transit was calculated by determining the area under the curve (AUC) of the cumulative percent recovery of the radioactive marker. The square root values of the AUC (Sqrt AUC), where 0=no recovery by 30 minutes and 47.4=theoretical, instantaneous complete recovery by time 0, were compared across region of fat exposure and oleate dose using 2-way repeated measures ANOVA (see Table 6 below).

intestinal transit [2] = experiment: Intestinal transit in multi-fistulated dogs, cumulative % recovery of 99mTc-DTPA; format: in vivo, dog
How it was run: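 Fistulated mongrel dogs (~25 kg) had the ~150 cm segment between duodenal and mid-gut fistulas isolated by occluding catheters and perfused at 2 mL/min with buffer plus test agent (some given i.v.). About 20 μCi 99mTc-DTPA was given as a bolus at 60 min of a 90-min perfusion. Mid-gut output was collected every 5 min for 30 min, gamma-counted, and reported as cumulative % recovery.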

SIBO [3] = experiment: Case: ADHD with SIBO, neomycin; format: in vivo, human; conditions: one patient
Excerpt: A person was brought in by their parent with a suspected diagnosis of attention deficit/hyperactivity disorder (AD type), made by a pediatrician. Concurrently, they also had significant bloating, gas and some alteration in bowel habits. They had initially been referred for diagnosis by their teachers and school counselors, because they had been having difficulty performing in school for the previous two to three years, after having previously been a very good student. Prior to the detection of SIBO, the subject had been treated with multiple pharmacologic agents for depression, including amitryptiline, with no noticeable improvement in their symptoms.
Additionally, they started to get AA≅ averages in school again after being in the AC≅ range.

SIBO [4] = experiment: Antibiotic treatment of Crohn's disease subjects with SIBO; format: in vivo, human
Protocol: To correct for selection bias, a pilot study was conducted to determine the incidence of SIBO in subjects who had received a suspected diagnosis of Crohn's disease at Cedars-Sinai Medical Center=s IBD Center within the preceding three months.

SIBO [5] = experiment: Comparison of antibiotic regimes for eradicating SIBO, follow-up lactulose breath hydrogen test (LBHT); format: in vivo, human
Protocol: Subjects were tested after an overnight fast. […] Each breath sample was then analyzed for hydrogen content with a gas chromatograph (Quintron Model DP, Quintron Instrument Co., Division of E.F. Brewer Co, Menomonee Falls, Wis. 53051), standardized using a QuinGas standard as instructed by the manufacturer. Hydrogen peaks were plotted before and after an antimicrobial treatment regimen for comparison. The normal range for the second hydrogen peak was 0 to 20 ppm. Subjects referred to the Cedars-Sinai GI Motility Program for a lactulose breath hydrogen test (LBHT) to assess SIBO were entered into a database. Those that tested positive for SIBO were given antibiotic treatment by their referring physician and in some cases, returned for a follow-up LBHT to assess eradication of SIBO. During the follow-up LBHT, subjects were asked which antibiotic they were given to treat their SIBO. The eradication rate of each antibiotic was evaluated. Of the 771 subjects in the database, 561 (73%) tested positive for SIBO. […] (See Table 1 below). […] None of the commonly used antibiotics was universally successful in eradicating overgrowth.

[6] = Crohn's subjects, pooled over the named antibiotics

CCCCCCCC/C=C\CCCCCCCC(=O)[O-].[Na+] [oleate, sodium oleate]
Sqrt AUC of cumulative percent marker recovery (mean ± SE) (intestinal transit [1]; Distal 1/2 of gut, 15 mM): 25.6 ± 1.4 | Sqrt AUC of cumulative percent marker recovery (mean ± SE) (intestinal transit [1]; Distal 1/2 of gut, 30 mM): 18.9 ± 1.5 | Sqrt AUC of cumulative percent marker recovery (mean ± SE) (intestinal transit [1]; Distal 1/2 of gut, 60 mM): 7.0 ± 3.8 | Sqrt AUC of cumulative percent marker recovery (mean ± SE) (intestinal transit [1]; Proximal 1/2 of gut, 15 mM, buffer control 41.4 ± 4.6): 41.6 ± 1.4 | Sqrt AUC of cumulative percent marker recovery (mean ± SE) (intestinal transit [1]; Proximal 1/2 of gut, 30 mM): 40.6 ± 10.2 | Sqrt AUC of cumulative percent marker recovery (mean ± SE) (intestinal transit [1]; Proximal 1/2 of gut, 60 mM): 34.4 ± 3.0 | proximal intestinal transit, cumulative % marker recovered (intestinal transit [2]; 60 mM oleate distal gut, Saline (i.v.), Buffer Control 70.11 ± 6.51, five dogs): 26.62 ± 5.36% | marker recovery (intestinal transit [2]; 60 mM oleate in proximal gut + normal saline (jejunal brake), n=3): 41.6±4.6% | marker recovery (intestinal transit [2]; 60 mM oleate in proximal gut with 0 mg naloxone, n=7): 30.0±3.6% | marker recovery (intestinal transit [2]; 60 mM oleate into distal gut, Buffer Control 79.7±5.8%, n=2 dogs): 25.8±5.2% | marker recovery (intestinal transit [2]; 60 mM oleate to distal gut (ileal brake), Buffer Control 81.2%): 24.1% | marker recovery (intestinal transit [2]; ileal brake (oleate in distal gut, buffer in proximal gut), control 76.3±3.1%, four dogs): 22.9±3.8% | marker recovery (intestinal transit [2]; ileal brake, 60 mM oleate into distal gut, n=2): 20±1.8% | marker recovery (intestinal transit [2]; ileal brake, 60 mM oleate to distal gut, no naloxone, n=11): 34.6±4.8%

neomycin
concentration (SIBO [3]): able to concentrate better | time to relapse of attention problem and bacterial overgrowth (SIBO [3]): Approximately two | response to repeat treatment (SIBO [3]; repeat 500 mg twice daily for 10 days): improved concentration and resolution of bowel symptoms | bowel symptoms (SIBO [3]; 500 mg twice daily for 10 days): resolution of their bowel symptoms | improvement in symptoms, breath test negative after antibiotic (SIBO [4]; [6]): 69±27% | improvement in symptoms, subjects remaining positive on breath test after antibiotic (SIBO [4]; [6]): 20±0% | eradication of SIBO (LBHT) (SIBO [4]; nine Crohn's patients): at least partially eradication of SIBO | overall improvement in symptoms by VAS (SIBO [4]; nine Crohn's patients (n=8 reporting), 10-day course of 500 mg twice/daily): 57±32% | eradication of SIBO (post-treatment LBHT) (SIBO [4]; pilot study, both subjects): completely at least partially eradicated | overall improvement in symptoms (SIBO [4]; pilot study, two subjects, respectively, 10-day course): 60% and 80% | success in eradicating SIBO, comparison of antibiotics (SIBO [5]; 105 subjects with follow-up LBHT): most successful | % Patients with SIBO Eradicated (SIBO [5]; follow-up LBHT): 55%
